Experimental data from ChEMBL document CHEMBL2073946, “Role of organic anion transporter OATP1B1 (OATP-C) in hepatic uptake of irinotecan and its active metabolite, 7-ethyl-10-hydroxycamptothecin: in vitro evidence and effect of single nucleotide polymorphisms” (Drug Metab Dispos, 2005).

How the values were obtained:
Assay type in all cases: functional, cell-based
[1] = biological target: T1, Solute carrier organic anion transporter family member 1B1 (Homo sapiens, UniProt Q9Y6L6); assay: TP_TRANSPORTER: uptake in OATP1B1-expressing HEK293 cell
T1 sequence (Q9Y6L6 whole entry): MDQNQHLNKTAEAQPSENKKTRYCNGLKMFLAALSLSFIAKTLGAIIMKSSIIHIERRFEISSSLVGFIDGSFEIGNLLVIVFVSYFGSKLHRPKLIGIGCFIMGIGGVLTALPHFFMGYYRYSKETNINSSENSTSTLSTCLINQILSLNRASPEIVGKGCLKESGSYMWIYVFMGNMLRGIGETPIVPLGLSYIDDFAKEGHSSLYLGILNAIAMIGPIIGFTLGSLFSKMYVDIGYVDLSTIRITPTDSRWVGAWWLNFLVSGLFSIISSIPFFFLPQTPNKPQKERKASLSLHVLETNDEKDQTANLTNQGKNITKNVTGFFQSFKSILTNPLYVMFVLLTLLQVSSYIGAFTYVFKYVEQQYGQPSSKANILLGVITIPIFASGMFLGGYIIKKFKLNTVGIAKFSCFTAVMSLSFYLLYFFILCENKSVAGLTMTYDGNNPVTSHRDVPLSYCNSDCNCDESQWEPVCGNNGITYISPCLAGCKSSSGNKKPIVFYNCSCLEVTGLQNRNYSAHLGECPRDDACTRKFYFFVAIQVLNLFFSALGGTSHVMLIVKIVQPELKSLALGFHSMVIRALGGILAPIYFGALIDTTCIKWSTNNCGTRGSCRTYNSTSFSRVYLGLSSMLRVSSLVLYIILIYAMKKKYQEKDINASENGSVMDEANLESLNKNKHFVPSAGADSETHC

[2] = biological target: T2, Solute carrier organic anion transporter family member 1B3 (Homo sapiens, UniProt Q9NPD5); assay: TP_TRANSPORTER: uptake of SN-38 at a concentration of 0.09uL/oocyte in Xenopus laevis oocytes
T2 sequence (Q9NPD5 whole entry): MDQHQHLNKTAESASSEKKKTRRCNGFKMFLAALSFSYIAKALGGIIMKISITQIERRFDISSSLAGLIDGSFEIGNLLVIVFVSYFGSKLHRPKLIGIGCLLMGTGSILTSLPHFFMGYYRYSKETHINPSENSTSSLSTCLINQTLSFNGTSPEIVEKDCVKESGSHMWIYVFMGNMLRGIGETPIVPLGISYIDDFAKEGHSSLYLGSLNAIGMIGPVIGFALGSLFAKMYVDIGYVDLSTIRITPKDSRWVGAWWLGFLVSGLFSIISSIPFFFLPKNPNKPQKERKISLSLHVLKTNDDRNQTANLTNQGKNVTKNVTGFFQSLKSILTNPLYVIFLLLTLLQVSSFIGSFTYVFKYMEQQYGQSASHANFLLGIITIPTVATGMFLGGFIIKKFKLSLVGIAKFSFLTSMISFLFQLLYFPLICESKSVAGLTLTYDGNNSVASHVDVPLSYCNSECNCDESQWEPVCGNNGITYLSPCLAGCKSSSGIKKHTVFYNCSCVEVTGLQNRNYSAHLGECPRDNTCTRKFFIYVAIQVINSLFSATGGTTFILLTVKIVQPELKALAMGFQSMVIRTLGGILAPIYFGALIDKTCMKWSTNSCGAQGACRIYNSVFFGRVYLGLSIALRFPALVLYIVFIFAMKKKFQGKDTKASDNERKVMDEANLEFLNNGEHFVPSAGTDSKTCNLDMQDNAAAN

[3] = biological target: T1, Solute carrier organic anion transporter family member 1B1; assay: TP_TRANSPORTER: uptake of SN-38 at a concentration of 0.16uL/oocyte in Xenopus laevis oocytes
[4] = biological target: T3, Solute carrier organic anion transporter family member 2B1 (Homo sapiens, UniProt O94956); assay: TP_TRANSPORTER: uptake of SN-38 at a concentration of 0.10uL/oocyte in Xenopus laevis oocytes
T3 sequence (O94956 whole entry): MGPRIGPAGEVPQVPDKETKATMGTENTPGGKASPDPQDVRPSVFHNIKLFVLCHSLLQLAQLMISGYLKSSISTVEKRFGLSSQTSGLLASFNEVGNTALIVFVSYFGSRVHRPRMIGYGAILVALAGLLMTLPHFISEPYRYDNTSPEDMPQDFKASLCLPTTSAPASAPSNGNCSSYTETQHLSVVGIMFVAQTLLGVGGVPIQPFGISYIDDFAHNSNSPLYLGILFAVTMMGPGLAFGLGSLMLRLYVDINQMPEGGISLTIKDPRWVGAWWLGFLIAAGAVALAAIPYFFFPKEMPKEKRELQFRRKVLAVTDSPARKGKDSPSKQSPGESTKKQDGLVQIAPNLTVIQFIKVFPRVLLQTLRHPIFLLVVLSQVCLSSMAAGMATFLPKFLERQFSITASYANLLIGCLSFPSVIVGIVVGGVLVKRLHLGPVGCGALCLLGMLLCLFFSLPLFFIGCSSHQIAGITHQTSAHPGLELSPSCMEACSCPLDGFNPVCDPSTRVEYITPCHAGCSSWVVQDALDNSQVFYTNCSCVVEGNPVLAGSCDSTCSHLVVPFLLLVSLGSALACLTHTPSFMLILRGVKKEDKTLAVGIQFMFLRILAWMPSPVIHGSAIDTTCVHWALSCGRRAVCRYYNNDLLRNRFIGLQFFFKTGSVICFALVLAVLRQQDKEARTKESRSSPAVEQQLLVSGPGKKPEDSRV

[5] = biological target: T1, Solute carrier organic anion transporter family member 1B1; assay: TP_TRANSPORTER: inhibition of E1S uptake (SN38 10 u M) in OATP1B1-expressing HEK293 cells; parameters: scale not given: the % may be the effect or the level left; conditions: hek293, 10 µM
[6] = biological target: T1, Solute carrier organic anion transporter family member 1B1; assay: TP_TRANSPORTER: uptake in OATP1B1-expressing HEK293 cells
[7] = biological target: T1, Solute carrier organic anion transporter family member 1B1; assay: TP_TRANSPORTER: inhibition of E1S uptake (SN38 G 10 u M) in OATP1B1-expressing HEK293 cells; conditions: hek293, 10 µM

Row | SMILES | Activity [1] | Activity [2] | Activity [3] | Activity [4] | Activity [5] [%] | Activity [6] | Activity [7]
1 | CCc1c2c(nc3ccc(OC(=O)N4CCC(N5CCCCC5)CC4)cc13)-c1cc3c(c(=O)n1C2)COC(=O)[C@]3(O)CC [IRINOTECAN] | is not a substrate [-] |  |  |  |  |  | 
2 | CCc1c2c(nc3ccc(O)cc13)-c1cc3c(c(=O)n1C2)COC(=O)[C@]3(O)CC [7-ETHYL-10-HYDROXYCAMPTOTHECIN] | substrate [+] | is not a substrate [-] | substrate [+] | is not a substrate [-] | 50 | substrate [] | 
3 | CCc1c2c(nc3ccc(OC[C@@H]4O[C@H](C(=O)O)[C@@H](O)[C@H](O)[C@H]4O)cc13)-c1cc3c(c(=O)n1C2)COC(=O)[C@]3(O)CC | is not a substrate [-] |  |  |  |  |  | is not an inhibitor [-]
